Source: paper PMC5668434, “Modulation of telomere protection by the PI3K/AKT pathway” (Nature Communications, 2017)
Read-outs that look alike come from different tables or passages of the source.

Tests used:
[1] = test system: PI3Kβ; settings: reported in literature, cited from earlier work
[2] = test system: PI3Kγ; settings: reported in literature, cited from earlier work
[3] = test system: PI3Kδ; settings: reported in literature, cited from earlier work
[4] = test system: TRF1 mRNA in CHA 9-3 lung cancer cells; assay: TRF1 mRNA by qPCR; type: cell-based, mouse; settings: 10 μM, 24 h
[5] = test system: TRF1 foci in CHA-9.3 mouse lung tumor cell line; assay: TRF1 foci immunofluorescence in CHA-9.3 cells; type: cell-based; settings: for Inhibition of TRF1 foci (in words): 10 μM (GSK-2126458 1.0 μM)
Method: TRF1 immunofluorescence of TRF1 was performed in lung tumor-derived cell line (CHA9.3) and in MEFs[39]. A rat monoclonal antibody against mouse TRF1 developed by the Monoclonal antibody unit at CNIO was used to detect endogenous TRF1 (1:500). GFP-TRF1 fluorescence was directly measured in cells fixed in paraformaldehyde. For quantification of TRF1 foci intensity, pictures of fixed cells were automatically acquired from each well by the Opera HCS system (Perkin Elmer). Sixty images of random fields per well, with a 40× magnification lens, were taken under non-saturating conditions. At least 1 × 10^3 cells were analyzed for each well. Briefly, images were segmented using the DAPI staining to generate masks matching cell nuclei from which-TRF1 foci were analyzed.

[6] = test system: p-AKT S473 in CHA-9.3 mouse lung cancer cell line; assay: Western blot of AKT phosphorylation at Ser473 in CHA-9.3 cells; type: cell-based; settings: for p-AKT S473 inhibition (in words): 10 μM time course; for inhibition at 10 µM: Mus musculus, read-out: Inhibition pAKT (Ser 473) with regard to DMSO
Method: These new chemical probes were prepared by replacement of a single key oxygen atom from the morpholine moiety by a methylene group, generating the piperidine derivatives ETP-51259 and ETP-50952 (Fig. 1a). To assess their PI3K cellular activity, we measured phosphorylation of residue Ser473 in AKT (p-AKT S473), a PI3K downstream target[61]–[63], by western blot analysis. To this end, we used the CHA-9.3 mouse lung cancer cell line previously generated by us[39]. […] Of note, the inhibitory activity of ETP-47037 was more prolonged than that of ETP-47228. Thus, ETP-47037 mediated p-AKT S473 inhibition was maintained during the 24-hour treatment while the ETP-47228 mediated inhibition decreased 35% after 24 h as compared to 1-h treatment but still was able to inhibit the pathway above 50% (Fig. 1c).
For detection of AKT, PRAS40 (T246) and pS6 in CHA9.3 cells, untreated control (DMSO) or treated with the indicated inhibitors, were lysed in RIPA buffer supplemented with 100 mM pefablock (Roche Diagnostics) and protease inhibitor cocktail (Roche Molecular Biochemicals). Proteins were resolved on 10% SDS-PAGE, and transferred to nitrocellulose membrane (Amersham^TM Protan^TM 0.2 µm nNC). Membranes were incubated with antibodies against phospho-AKT (Ser473), AKT, phospo-S6 (Ser 235/236), and S6Ribosomal from Cell Signaling, phospo-PRAS40 (Thr246) from BIOSURCE and anti α-tubulin form Sigma, overnight at 4 °C. After washing, blots were incubated with secondary antibody: Alexa Fluor 680 goat anti-rabbit IgG (Invitrogen) or anti-mouse IgG DyLight 800 conjugated (Thermo Scientific), and visualized using an Odyssey infrared imaging system (Li-Cor Biosciences).

[7] = target: T1, PI3K (p110α) (Homo sapiens, UniProt P42336); assay: PI3K alpha biochemical assay (ADP Hunter Plus); settings: for IC50: internal data, read-out: PI3Kα IC50
T1 construct: purchased Cama Biosciences (sic; Carna Biosciences) #07CBS-0402A
T1 sequence (P42336 whole entry): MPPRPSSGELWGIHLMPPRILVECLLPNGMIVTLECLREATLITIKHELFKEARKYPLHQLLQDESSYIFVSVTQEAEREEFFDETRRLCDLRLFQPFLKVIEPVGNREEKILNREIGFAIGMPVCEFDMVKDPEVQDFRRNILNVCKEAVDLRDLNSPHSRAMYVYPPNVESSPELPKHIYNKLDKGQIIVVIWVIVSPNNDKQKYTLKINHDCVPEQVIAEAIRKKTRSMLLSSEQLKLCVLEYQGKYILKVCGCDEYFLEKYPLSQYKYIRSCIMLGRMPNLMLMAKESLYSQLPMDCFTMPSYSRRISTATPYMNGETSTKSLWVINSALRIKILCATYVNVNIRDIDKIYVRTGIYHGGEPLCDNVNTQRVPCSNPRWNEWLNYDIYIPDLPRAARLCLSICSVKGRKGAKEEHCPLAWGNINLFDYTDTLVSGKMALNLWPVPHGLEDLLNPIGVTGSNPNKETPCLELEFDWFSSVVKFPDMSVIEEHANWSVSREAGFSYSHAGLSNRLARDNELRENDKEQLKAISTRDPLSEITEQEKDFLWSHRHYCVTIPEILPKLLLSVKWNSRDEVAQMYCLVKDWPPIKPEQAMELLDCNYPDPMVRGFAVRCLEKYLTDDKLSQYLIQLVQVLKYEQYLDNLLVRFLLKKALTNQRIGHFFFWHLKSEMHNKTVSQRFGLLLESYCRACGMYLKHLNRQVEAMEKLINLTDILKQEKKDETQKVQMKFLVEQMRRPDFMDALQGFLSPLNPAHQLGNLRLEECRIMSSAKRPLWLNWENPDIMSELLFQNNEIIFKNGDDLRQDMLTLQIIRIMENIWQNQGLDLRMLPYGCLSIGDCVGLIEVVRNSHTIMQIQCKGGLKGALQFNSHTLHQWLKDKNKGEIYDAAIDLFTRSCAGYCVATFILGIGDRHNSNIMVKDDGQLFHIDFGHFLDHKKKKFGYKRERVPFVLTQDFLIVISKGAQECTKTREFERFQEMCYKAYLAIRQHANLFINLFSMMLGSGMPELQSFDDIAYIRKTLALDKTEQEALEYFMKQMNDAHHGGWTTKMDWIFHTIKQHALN
T1 sequence (P27986 whole entry partner): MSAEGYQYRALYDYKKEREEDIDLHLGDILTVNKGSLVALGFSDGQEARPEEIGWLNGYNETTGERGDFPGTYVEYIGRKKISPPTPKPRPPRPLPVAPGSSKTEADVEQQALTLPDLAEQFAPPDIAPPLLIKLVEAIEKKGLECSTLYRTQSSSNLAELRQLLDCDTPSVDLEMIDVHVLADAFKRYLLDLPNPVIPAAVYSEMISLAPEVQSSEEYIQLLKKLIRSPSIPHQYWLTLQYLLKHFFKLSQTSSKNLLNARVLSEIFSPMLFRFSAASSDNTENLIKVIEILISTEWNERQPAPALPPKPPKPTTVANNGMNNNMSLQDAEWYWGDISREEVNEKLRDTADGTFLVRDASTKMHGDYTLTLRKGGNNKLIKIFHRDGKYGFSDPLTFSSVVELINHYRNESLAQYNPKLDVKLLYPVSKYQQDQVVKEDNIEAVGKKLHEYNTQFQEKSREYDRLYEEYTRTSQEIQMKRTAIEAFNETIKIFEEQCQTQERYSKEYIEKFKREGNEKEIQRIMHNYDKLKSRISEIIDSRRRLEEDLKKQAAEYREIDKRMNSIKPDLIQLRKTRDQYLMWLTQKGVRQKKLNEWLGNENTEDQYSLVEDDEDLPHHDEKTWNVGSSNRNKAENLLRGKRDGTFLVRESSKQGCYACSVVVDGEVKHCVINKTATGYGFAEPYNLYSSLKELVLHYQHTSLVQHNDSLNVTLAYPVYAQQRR

[8] = target: T2, mTOR (FRAP1) (Homo sapiens, UniProt P42345); assay: mTOR biochemical assay (LanthaScreen); settings: for IC50: internal data
T2 construct: purchased ThermoFisher PV4753
T2 sequence (P42345 1360-2549 limits assumed): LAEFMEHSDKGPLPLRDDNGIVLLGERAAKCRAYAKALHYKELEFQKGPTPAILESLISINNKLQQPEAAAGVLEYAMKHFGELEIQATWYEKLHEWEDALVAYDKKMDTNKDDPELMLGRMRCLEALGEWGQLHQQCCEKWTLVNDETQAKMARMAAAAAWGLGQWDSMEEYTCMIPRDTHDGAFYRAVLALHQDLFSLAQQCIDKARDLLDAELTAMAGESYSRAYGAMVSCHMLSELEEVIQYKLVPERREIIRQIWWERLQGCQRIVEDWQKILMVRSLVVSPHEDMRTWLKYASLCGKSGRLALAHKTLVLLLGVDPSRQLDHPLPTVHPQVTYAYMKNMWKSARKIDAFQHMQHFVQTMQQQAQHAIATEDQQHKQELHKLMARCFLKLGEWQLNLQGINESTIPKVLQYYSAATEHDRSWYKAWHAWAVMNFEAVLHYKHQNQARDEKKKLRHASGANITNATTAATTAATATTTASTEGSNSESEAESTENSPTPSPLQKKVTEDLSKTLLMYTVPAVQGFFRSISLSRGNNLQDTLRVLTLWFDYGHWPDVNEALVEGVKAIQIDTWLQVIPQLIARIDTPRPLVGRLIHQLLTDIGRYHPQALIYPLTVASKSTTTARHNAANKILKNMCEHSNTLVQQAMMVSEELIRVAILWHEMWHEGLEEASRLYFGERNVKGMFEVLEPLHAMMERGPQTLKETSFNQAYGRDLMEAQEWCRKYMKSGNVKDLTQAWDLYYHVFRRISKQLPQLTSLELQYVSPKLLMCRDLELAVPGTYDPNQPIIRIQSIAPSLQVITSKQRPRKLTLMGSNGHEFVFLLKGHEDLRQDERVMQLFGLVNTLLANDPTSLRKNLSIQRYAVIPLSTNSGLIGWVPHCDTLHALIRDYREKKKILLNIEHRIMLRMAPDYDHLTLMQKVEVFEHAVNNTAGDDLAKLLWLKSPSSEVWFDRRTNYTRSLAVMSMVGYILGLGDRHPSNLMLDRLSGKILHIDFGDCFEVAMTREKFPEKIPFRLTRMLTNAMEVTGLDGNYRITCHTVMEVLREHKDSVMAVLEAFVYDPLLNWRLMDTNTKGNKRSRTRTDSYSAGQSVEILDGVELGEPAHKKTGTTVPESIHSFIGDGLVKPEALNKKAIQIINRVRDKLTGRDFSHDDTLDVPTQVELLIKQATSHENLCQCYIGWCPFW

[9] = target: PI3Kα; settings: reported in literature, cited from earlier work
[10] = test system: mTOR; settings: reported in literature; cited from earlier work
[11] = target: the molecule itself; assay: western blot after SDS-PAGE in non-reducing conditions; nuclear extracts of Trf1-deleted MEFs expressing the GFP-tagged TRF1 variant, prepared without dithiothreitol and 2-mercaptoethanol, not heated before gel loading; blot against TRF1; one wild-type sample in reducing conditions shows the monomer

## CS(=O)(=O)N1CCN(Cc2cc3nc(-c4cccc5[nH]ncc45)nc(N4CCOCC4)c3s2)CC1 [GDC-0941, 2-(1H-indazol-4-yl)-6-(4-methanesulfonyl-piperazin-1-ylmethyl)-4-morpholin-4-yl-t hieno[3,2-d]pyrimidine]
[1]
  IC50: […]
[2]
  IC50: […]
[3]
  IC50: […]
[4]
  TRF1 mRNA levels: None of the inhibitors significantly affected

## Cc1cc(C(C)Nc2ccccc2)c2nc(N3CCOCC3)cc(=O)n2c1 (stereo not drawn) [TGX-221, reference compound]
[5]; Mus musculus, 10 μM, 24 h, CHA-9.3, relative to DMSO, read-out: Inhibition of TRF1 foci fluorescence
  inhibition at 10 µM: […]
[1]
  IC50: […]
  Reported selectivity for PI3Kβ vs. PI3Kα: […]
[6]; 10 μM (GSK-2126458 1.0 μM), 24 h
  Phosphorylation of AKT (p-AKT S473) (in words): moderate inhibition
[7]
  PI3Kα inhibition (in words): negligible PI3Kα inhibition

## Cc1cnc2c(N3CCCCC3)nc(-c3ccc(NC(=O)Nc4ccc(C(=O)N5CCN(C)CC5)cc4)cc3)cn12 [ETP-50952]
[5]; 24 h, CHA-9.3
  Inhibition of TRF1 foci (in words): negligible inhibition of TRF1 foci
[6]
  p-AKT S473 inhibition (in words): largely unaffected
[6]; 1 h, 1 h
  inhibition at 10 µM: 38%
[6]; 4 h, 4 h
  inhibition at 10 µM: 18%
[6]; 24 h, 24 h
  inhibition at 10 µM: 10%
[8]
  IC50: > 10000 nM
[7]
  Activity against PI3K (in words): negligible activity against PI3K
  IC50: 9000 nM

## CC(C)C[C@H](NC(=O)[C@H](Cc1ccccc1)NC(=O)c1cnccn1)B(O)O [Bortezomib, reference compound]
[5]; bortezomib 50 nM, CHA 9-3
  TRF1 intensity levels: twofold increase

## COCCNC(=O)c1nc2c(N3CCOCC3)nc(-c3cnc(N)nc3)cn2c1C [ETP-46992]
[9]; read-out: Reported data PI3Kα Kiapp
  Ki: 2.4 nM
[1]; read-out: Reported data PI3Kβ Kiapp
  Ki: […]
[8]
  IC50: 3690 nM
[10]
  IC50: > 3000 nM
[2]; read-out: Reported data PI3Kγ Kiapp
  Ki: […]
[3]; read-out: Reported data PI3Kδ Kiapp
  Ki: […]

## Cn1c(=O)n(-c2ccc(C(C)(C)C#N)cc2)c2c3cc(-c4cnc5ccccc5c4)ccc3ncc21 [BEZ-235]
[9]
  IC50: 4 nM
[1]
  IC50: 5 nM
[8]
  mTOR inhibition (in words): potent nanomolar mTOR inhibition
[10]
  IC50: […]
[2]
  IC50: 75 nM

## CS(=O)(=O)N1CCN(Cc2cc3c(N4CCCCC4)nc(-c4cnc(N)nc4)cn3n2)CC1 [ETP-51259]
[5]; 24 h, CHA-9.3
  Inhibition of TRF1 foci (in words): negligible inhibition of TRF1 foci
[6]
  p-AKT S473 inhibition (in words): largely unaffected
[6]; 1 h, 1 h
  inhibition at 10 µM: 48%
[6]; 4 h, 4 h
  inhibition at 10 µM: 49%
[6]; 16 h, 16 h
  inhibition at 10 µM: 4%
[8]
  IC50: > 10000 nM
[7]
  Activity against PI3K (in words): negligible activity against PI3K
  IC50: > 10000 nM

B1: eGFP-tagged TRF1 wild type (natural protein, mouse, UniProt P70371 1-421, looked up)
chain: MAETVSSAARDAPSREGWTDSDSPEQEEVGDDAELLQCQLQLGTPREMENAELVAEVEAVAAGWMLDFLCLSLCRAFRDGRSEDFRRTRDSAEAIIHGLHRLTAYQLKTVYICQFLTRVASGKALDAQFEVDERITPLESALMIWNSIEKEHDKLHDEIKNLIKIQAVAVCMEIGSFKEAEEVFERIFGDPEFYTPLERKLLKIISQKDVFHSLFQHFSYSCMMEKIQSYVGDVLSEKSSTFLMKAATKVVENEKARTQASKDRPDATNTGMDTEVGLNKEKSVNGQQSTETEPLVDTVSSIRSHKNALSQLKHRRAPSDFSRNEARTGTLQCETTMERNRRTSGRNRLCVSENQPDTDDKSGRRKRQTWLWEEDRILKCGVKKYGEGNWAKILSHYKFNNRTSVMLKDRWRTMKRLKLIS
notes: insert of the retroviral vector eGFP-TRF1 pWzl-Hygro; also called GFP-TRF1; eGFP-TRF1; source: Trf1 lox/lox MEFs, retroviral transduction (eGFP-TRF1 pWzl-Hygro), endogenous Trf1 deleted with Cre, in nuclear extract
[11]
  stoichiometry N: 2

B2: eGFP-tagged TRF1 T248A (natural protein, mouse, UniProt P70371 1-421, looked up)
chain: MAETVSSAARDAPSREGWTDSDSPEQEEVGDDAELLQCQLQLGTPREMENAELVAEVEAVAAGWMLDFLCLSLCRAFRDGRSEDFRRTRDSAEAIIHGLHRLTAYQLKTVYICQFLTRVASGKALDAQFEVDERITPLESALMIWNSIEKEHDKLHDEIKNLIKIQAVAVCMEIGSFKEAEEVFERIFGDPEFYTPLERKLLKIISQKDVFHSLFQHFSYSCMMEKIQSYVGDVLSEKSSTFLMKAAAKVVENEKARTQASKDRPDATNTGMDTEVGLNKEKSVNGQQSTETEPLVDTVSSIRSHKNALSQLKHRRAPSDFSRNEARTGTLQCETTMERNRRTSGRNRLCVSENQPDTDDKSGRRKRQTWLWEEDRILKCGVKKYGEGNWAKILSHYKFNNRTSVMLKDRWRTMKRLKLIS
notes: insert of the retroviral vector eGFP-TRF1 pWzl-Hygro with T248A; Made by site-directed mutagenesis of the vector of m1 with the primer mTRF1-T248A; also called GFP-TRF1 T248A
[11]
  stoichiometry N: 2

B3: eGFP-tagged TRF1 T330A/S344A (natural protein, mouse, UniProt P70371 1-421, looked up)
chain: MAETVSSAARDAPSREGWTDSDSPEQEEVGDDAELLQCQLQLGTPREMENAELVAEVEAVAAGWMLDFLCLSLCRAFRDGRSEDFRRTRDSAEAIIHGLHRLTAYQLKTVYICQFLTRVASGKALDAQFEVDERITPLESALMIWNSIEKEHDKLHDEIKNLIKIQAVAVCMEIGSFKEAEEVFERIFGDPEFYTPLERKLLKIISQKDVFHSLFQHFSYSCMMEKIQSYVGDVLSEKSSTFLMKAATKVVENEKARTQASKDRPDATNTGMDTEVGLNKEKSVNGQQSTETEPLVDTVSSIRSHKNALSQLKHRRAPSDFSRNEARTGALQCETTMERNRRTAGRNRLCVSENQPDTDDKSGRRKRQTWLWEEDRILKCGVKKYGEGNWAKILSHYKFNNRTSVMLKDRWRTMKRLKLIS
notes: insert of the retroviral vector eGFP-TRF1 pWzl-Hygro with T330A and S344A; Made by site-directed mutagenesis of the vector of m1 with the primers mTRF1-T330A and mTRF1-S344A; also called TRF1 double mutant; GFP-TRF1 T330A/S344A
[11]
  stoichiometry N: 2

B4: eGFP-tagged TRF1 S344A (natural protein, mouse, UniProt P70371 1-421, looked up)
chain: MAETVSSAARDAPSREGWTDSDSPEQEEVGDDAELLQCQLQLGTPREMENAELVAEVEAVAAGWMLDFLCLSLCRAFRDGRSEDFRRTRDSAEAIIHGLHRLTAYQLKTVYICQFLTRVASGKALDAQFEVDERITPLESALMIWNSIEKEHDKLHDEIKNLIKIQAVAVCMEIGSFKEAEEVFERIFGDPEFYTPLERKLLKIISQKDVFHSLFQHFSYSCMMEKIQSYVGDVLSEKSSTFLMKAATKVVENEKARTQASKDRPDATNTGMDTEVGLNKEKSVNGQQSTETEPLVDTVSSIRSHKNALSQLKHRRAPSDFSRNEARTGTLQCETTMERNRRTAGRNRLCVSENQPDTDDKSGRRKRQTWLWEEDRILKCGVKKYGEGNWAKILSHYKFNNRTSVMLKDRWRTMKRLKLIS
notes: insert of the retroviral vector eGFP-TRF1 pWzl-Hygro with S344A; Made by site-directed mutagenesis of the vector of m1 with the primer mTRF1-S344A; also called GFP-TRF1 S344A
[11]
  stoichiometry N: 2

B5: eGFP-tagged TRF1 T330A (natural protein, mouse, UniProt P70371 1-421, looked up)
chain: MAETVSSAARDAPSREGWTDSDSPEQEEVGDDAELLQCQLQLGTPREMENAELVAEVEAVAAGWMLDFLCLSLCRAFRDGRSEDFRRTRDSAEAIIHGLHRLTAYQLKTVYICQFLTRVASGKALDAQFEVDERITPLESALMIWNSIEKEHDKLHDEIKNLIKIQAVAVCMEIGSFKEAEEVFERIFGDPEFYTPLERKLLKIISQKDVFHSLFQHFSYSCMMEKIQSYVGDVLSEKSSTFLMKAATKVVENEKARTQASKDRPDATNTGMDTEVGLNKEKSVNGQQSTETEPLVDTVSSIRSHKNALSQLKHRRAPSDFSRNEARTGALQCETTMERNRRTSGRNRLCVSENQPDTDDKSGRRKRQTWLWEEDRILKCGVKKYGEGNWAKILSHYKFNNRTSVMLKDRWRTMKRLKLIS
notes: insert of the retroviral vector eGFP-TRF1 pWzl-Hygro with T330A; Made by site-directed mutagenesis of the vector of m1 with the primer mTRF1-T330A; also called GFP-TRF1 T330A
[11]
  stoichiometry N: 2
